From ChEMBL document CHEMBL3739327, “Novel indole-based sigma-2 receptor ligands: synthesis, structureaffinity relationship and antiproliferative activity” (Medchemcomm, 2015)
The source made the active and inactive calls. No cut-off for these calls is given here.

Tests used:
[1] = biological target: Sigma non-opioid intracellular receptor 1 (Rattus norvegicus, UniProt Q9R0C9); assay: Displacement of [3H]-(+)-pentazocine from sigma 1 receptor in rat brain by competition binding assay; type: tissue-based
Sequence of Sigma non-opioid intracellular receptor 1 (Rattus norvegicus, UniProt Q9R0C9) (Q9R0C9 whole entry): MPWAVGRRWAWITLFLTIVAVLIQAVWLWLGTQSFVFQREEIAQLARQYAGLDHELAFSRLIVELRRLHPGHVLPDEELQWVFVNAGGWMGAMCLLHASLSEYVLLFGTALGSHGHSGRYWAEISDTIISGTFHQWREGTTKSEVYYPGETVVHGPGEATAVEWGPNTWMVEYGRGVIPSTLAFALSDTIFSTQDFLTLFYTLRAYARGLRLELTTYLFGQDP

[2] = Displacement of [3H]-DTG from sigma 2 receptor in rat liver membrane by competition binding assay in presence of dextrallorphan; type: cell membranes
Rattus norvegicus = species: Rattus norvegicus; assay: Selectivity ratio of Ki for sigma 1 receptor in rat brain to Ki for sigma 2 receptor in rat liver membrane; type: cell membranes
[3] = Cell cycle arrest in human DU145 cells assessed as accumulation at G1 phase after 24 hrs by propidium iodide staining-based flow cytometry; type: functional; details: DU-145
MCF7 [4] = assay: Antiproliferative activity against human MCF7 cells assessed as reduction in cell viability after 24 hrs by MTT assay; type: functional, cell-based; details: MCF7, 24 h
[5] = Antiproliferative activity against human DU145 cells assessed as reduction in cell viability after 24 hrs by MTT assay; type: functional, cell-based; details: DU-145, 24 h
C6 = assay: Antiproliferative activity against rat C6 cells assessed as reduction in cell viability after 24 hrs by MTT assay; type: functional, cell-based; details: C6, 24 h
[6] = Cell cycle arrest in human DU145 cells assessed as accumulation at G1 phase at 30 uM after 24 hrs by propidium iodide staining-based flow cytometry (reference value: 58.2 %); type: functional; details: DU-145
[7] = Cell cycle arrest in human DU145 cells assessed as accumulation at S phase at 30 uM after 24 hrs by propidium iodide staining-based flow cytometry (reference value: 38.6 %); type: functional; details: DU-145
[8] = Selectivity ratio of Ki for sigma 1 receptor in guinea pig brain membrane to Ki for sigma 2 receptor in rat liver membrane; type: cell membranes
MCF7 [9] = assay: Antiproliferative activity against human MCF7 cells assessed as reduction in cell viability after 48 hrs by MTT assay; type: functional, cell-based; details: MCF7, 48 h
[10] = Cell cycle arrest in human DU145 cells assessed as accumulation at G1 phase at 40 uM after 24 hrs by propidium iodide staining-based flow cytometry (reference value: 58.2 %); type: functional; details: DU-145
[11] = Cell cycle arrest in human DU145 cells assessed as accumulation at S phase at 40 uM after 24 hrs by propidium iodide staining-based flow cytometry (reference value: 38.6 %); type: functional; details: DU-145
[12] = biological target: Sigma non-opioid intracellular receptor 1 (Cavia porcellus, UniProt Q60492); assay: Displacement of [3H]-(+)-pentazocine from sigma-1 receptor in guinea pig brain membrane by competition binding assay; type: cell membranes
Sequence of Sigma non-opioid intracellular receptor 1 (Cavia porcellus, UniProt Q60492) (Q60492 whole entry): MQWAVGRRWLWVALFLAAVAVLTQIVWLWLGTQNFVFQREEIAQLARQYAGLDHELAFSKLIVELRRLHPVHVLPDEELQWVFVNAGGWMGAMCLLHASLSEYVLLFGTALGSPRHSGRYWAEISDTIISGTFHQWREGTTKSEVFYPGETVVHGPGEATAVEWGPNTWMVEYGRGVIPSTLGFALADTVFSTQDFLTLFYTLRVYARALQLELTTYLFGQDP

[13] = Cell cycle arrest in human DU145 cells assessed as accumulation at G1 phase at 15 to 25 uM after 24 hrs by propidium iodide staining-based flow cytometry (reference value: 58.2 %); type: functional; details: DU-145
MDA-MB-435 [14] = assay: Induction of apoptosis in human MDA-MB-435 cells assessed as decreased cyclin D1 expression at 10 uM incubated for 24 hrs by Western blot analysis; type: functional, cell-based; details: TDE = time-dependent effect
MDA-MB-435 [15] = assay: Induction of apoptosis in human MDA-MB-435 cells assessed as decreased cyclin B1 expression at 10 uM incubated for 24 hrs by Western blot analysis; type: functional, cell-based
MDA-MB-435 [16] = assay: Induction of apoptosis in human MDA-MB-435 cells assessed as decreased phospho-Rb expression at 10 uM incubated for 24 hrs by Western blot analysis; type: functional, cell-based
[17] = Displacement of [3H]-DTG from sigma 2 receptor in rat brain by competition binding assay; type: tissue-based

| SMILES | Ki [1] | Ki [2] | Ratio Ki (Rattus norvegicus) | further results |
| --- | --- | --- | --- | --- |
| FCCOCCOc1ccc(N2CCN(CCCCc3cn(-c4ccc(F)cc4)c4ccccc34)CC2)cc1 | 1.11 µM | 0.458 µM | 2.4 | – |
| FCCOc1ccc(N2CCN(CCCCc3cn(-c4ccc(F)cc4)c4ccccc34)CC2)cc1 | 0.614 µM | 0.068 µM | 9 | – |
| FCCOCCOCCOc1ccc(N2CCN(CCCCc3cn(-c4ccc(F)cc4)c4ccccc34)CC2)cc1 | 2.16 µM | 1.88 µM | 1.1 | – |
| N#CC1(c2ccccc2)CCN(CCCCc2cn(-c3ccc(F)cc3)c3ccccc23)CC1 | 0.00258 µM | 0.00303 µM | 0.9 | – |
| FCCn1cc(CCCCN2CCC3(CC2)OCc2ccccc23)c2ccccc21 | 0.246 µM | 0.044 µM | 5.6 | – |
| N#CC1(c2ccccc2)CCN(CCCCc2cn(-c3ccc(I)cc3)c3ccccc23)CC1 | 0.386 µM | 0.0185 µM | 20.9 | – |
| Fc1ccc(-n2cc(CCCCN3CCC4(CC3)OCc3ccccc34)c3ccccc32)cc1 [SIRAMESINE] | – | 0.00308 µM | – | Activity [3]: Dose-dependent effect; Ki [12]: 0.0105 µM; EC50 (MCF7 [4]): 23.6 µM; EC50 (MCF7 [9]): 12.3 µM; EC50 [5]: 13.9 µM; EC50 (C6): 43.1 µM; Activity [13]: 75.7%; Activity (MDA-MB-435 [14]): tde; Activity (MDA-MB-435 [15]): Active; Activity (MDA-MB-435 [16]): Active; IC50 [17]: 0.00012 µM |

Second part, led by results:

| Ki [1] | Ki [2] | Ratio Ki (Rattus norvegicus) | SMILES | further results |
| --- | --- | --- | --- | --- |
| 0.256 µM | 0.0538 µM | 4.8 | COc1cc2c(cc1OC)CN(CCCCc1cn(-c3ccc(F)cc3)c3ccccc13)C2 | Activity [3]: Dose-dependent effect; EC50 (MCF7 [4]): 17 µM; EC50 [5]: 26.9 µM; EC50 (C6): 44.1 µM; Activity [6]: 80.5%; Activity [7]: 19.3% |
| 0.531 µM | 0.0492 µM | 10.8 | COc1cc2c(cc1OC)CN(CCCCc1cn(-c3ccc(F)cc3)c3ccccc13)CC2 | Activity [3]: Dose-dependent effect; Ratio Ki [8]: 260; EC50 (MCF7 [4]): 20.9 µM; EC50 (MCF7 [9]): 17.8 µM; EC50 [5]: 28.8 µM; EC50 (C6): 76.5 µM; Activity [10]: 84.1%; Activity [11]: 15.9% |
| 0.011 µM | 0.0298 µM | 0.4 | FCCc1cn(CCCCN2CCC3(CC2)OCc2ccccc23)c2ccccc12 | – |
| 0.257 µM | 0.0484 µM | 5.3 | FCCOc1cccc(N2CCN(CCCCc3cn(-c4ccc(F)cc4)c4ccccc34)CC2)c1 | – |
| 0.0166 µM | 0.0124 µM | 1.3 | COc1cc2c(cc1OC)CN(CCCCC(=O)c1ccc(F)cc1)CC2 | – |
| 0.263 µM | 0.0285 µM | 9.2 | COc1cc2c(cc1OC)CN(CCCCn1cc(CCCF)c3ccccc31)CC2 | – |
| 0.493 µM | 0.0275 µM | 17.9 | COc1cc2c(cc1OC)CN(CCCCn1cc(CCF)c3ccccc31)CC2 | – |
